Structures can show the parent of a compound that is named as a salt.
What was measured:
human FLAP = human FLAP (Homo sapiens (Human), UniProt P20292); experiment: FLAP binding assay (HTRF format); settings: human FLAP wild type, Table 6 (additional runs)
How it was run: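 Samples were run in duplicate on each of two assay plates, the results were averaged, and the signal was expressed as an HTRF ratio.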

[1] = test system: leukotriene pathway in human whole blood (LTB4); experiment: Human whole blood assay (LTB4 levels after calcium ionophore A23187 stimulation); format: cell-based; settings: Homo sapiens, human whole blood diluted 1:1, A23187 stimulation; Table 6 (additional runs); read-out: Human Whole Blood LTB4 IC50 1:1
Protocol: The ability of the compounds of the present invention to treat a FLAP-mediated disease and/or disorder, or associated symptoms or complications thereof, was determined using the following procedures. Binding assay data represent the average value obtained from two different assay plates, with samples run in duplicate on each plate. Human whole blood assay data represent a single replicate on an assay plate using whole blood from at least one healthy donor.
An in vitro cellular assay was performed using human whole blood collected in heparin-containing tubes, which was used to test the ability of compounds to modulate the leukotriene pathway in human whole blood. The blood was diluted 1:1 in RPMI medium, pre-incubated for 15 min at 37° Celsius with test compounds at various concentrations, and then stimulated with calcium ionophore, A23187 (7 μg/mL), for 30 min at 37° Celsius. The samples were then centrifuged and plasma was removed. The plasma was diluted in assay buffer and LTB4 levels were measured using a commercial kit (Enzo Life Sciences). The concentration of each compound that was required for half-maximal inhibition (modulation) of recombinant enzyme activity (IC50) was calculated by a 4-parameter equation using the program GraphPad Prism (GraphPad software).

human FLAP, sequence (P20292 whole entry): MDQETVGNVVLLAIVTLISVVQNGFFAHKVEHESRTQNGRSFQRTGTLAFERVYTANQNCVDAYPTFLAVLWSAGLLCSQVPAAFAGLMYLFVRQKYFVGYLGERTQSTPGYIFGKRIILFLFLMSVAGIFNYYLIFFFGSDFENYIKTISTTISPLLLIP

Structure (SMILES)	Ki (human FLAP) [nM]	IC50 [1] [nM]
CC(C)c1ccccc1-c1ccc(-c2cnc(N)cn2)c(F)c1 [Example 482, 5-[3-Fluoro-2′-(1-methylethyl)biphenyl-4-yl]pyrazin-2-amine]	60.9	320
Nc1ncc(-c2ccc(-c3ccc(C(F)(F)F)cc3C(=O)N3CCOCC3)cc2F)cn1 [Example 522, 5-[3-Fluoro-2′-(morpholin-4-ylcarbonyl)-4′-(trifluoromethyl)biphenyl-4-yl]pyrimidin-2-amine]	286	264
Nc1cnc(-c2ccc(-c3ccccc3Oc3cc(N)ncn3)cc2F)cn1 [Example 535, 6-{[4′-(5-Aminopyrazin-2′yl)-3′-fluorobiphenyl-2-yl]oxy}pyrimidin-4′-amine]	1.5	15.5
CCNS(=O)(=O)c1cc(C(F)(F)F)ccc1-c1cnc(-c2cnc(N)nc2)c(F)c1 [Example 674, 2-[6-(2-Aminopyrimidin-5-yl)-5-fluoropyridin-3-yl]-N-ethyl-5-(trifluoromethyl)benzenesulfonamide]	3.6	13.3
CC(=O)N1CCC(S(=O)(=O)c2ncccc2-c2ccc(-c3cnc(N)cn3)c(F)c2)CC1 [Example 816, 1-((3-(4-(2-Aminopyrazin-5-yl)-3-fluorophenyl)pyridine-2-yl)sulfonyl)piperidin-1-yl)ethanone hydrogen chloride salt]	37	61
Nc1cnc(-c2ccc(-c3cccnc3S(=O)(=O)C3CC3)cc2F)cn1 [Example 829, 5-{4-[2-(Cyclopropylsulfonyl)pyridin-3-yl]-2-fluorophenyl}pyrazin-2-amine formic acid salt]	5.7	9
Nc1ncc(-c2ccc(-c3cccnc3S(=O)(=O)C3CCOCC3)cc2F)cn1 [Example 831, 5-{2-Fluoro-4-[2-(tetrahydro-2H-pyran-4-ylsulfonyl)pyridin-3-yl]phenyl}pyrimidin-2-amine formic acid salt]	149	72.5
N#Cc1ncc(-c2ccccc2-c2ccc(-c3cnc(N)cn3)c(F)c2)cn1 [Example 849, 5-[4′-(5-Aminopyrazin-2-yl)-3′-fluorobiphenyl-2-yl]pyrimidine-2-carbonitrile]	38.3	3900
Nc1ccc(-c2ccccc2-c2ccc(-c3cnc(N)cn3)c(F)c2)cn1 [Example 861, 5-[2′-(6-Aminopyridin-3-yl)-3-fluorobiphenyl-4-yl]pyrazin-2-amine]	4	44.9
Nc1cnc(-c2ccc(-c3ccccc3-c3cnc(N4CCNCC4)nc3)cc2F)cn1 [Example 862, 5-[3-Fluoro-2′-(2-piperazin-1-ylpyrimidin-5-yl)biphenyl-4-yl]pyrazin-2-amine]	122	121
NCCn1cc(-c2ccccc2-c2ccc(-c3cnc(N)cn3)c(F)c2)cn1 [Example 864, 5-{2′-[1-(2-Aminoethyl)-1H-pyrazol-4-yl]-3-fluorobiphenyl-4-yl]pyrazin-2-amine]	216	413
Nc1ccc(-c2ccccc2-c2ccc(-c3cnc(N)nc3)c(F)c2)cn1 [Example 865, 5-[2′-(6-Aminopyridin-3-yl)-3-fluorobiphenyl-4-yl]pyrimidin-2-amine]	96.2	192
CNc1ncc(-c2ccccc2-c2ccc(-c3cnc(N)nc3)c(F)c2)cn1 [Example 866, 5-[4′-(2-Aminopyrimidin-5-yl)-3′-fluorobiphenyl-2-yl]-N-methylpyrimidin-2-amine]	170	539
Nc1ncc(-c2ccc(-c3ccccc3-c3ccnc(N)n3)cc2F)cn1 [Example 867, 4-[4′-(2-Aminopyrimidin-5-yl)-3′-fluorobiphenyl-2-yl]pyrimidin-2-amine]	246	793
Nc1cnc(-c2ccc(-c3ccccc3-c3ccnc(N)n3)cc2F)cn1 [Example 868, 4-[4′-(5-Aminopyrazin-2-yl)-3′-fluorobiphenyl-2-yl]pyrimidin-2-amine]	21.5	345
COCCn1cc(-c2ccccc2-c2ccc(-c3cnc(N)cn3)c(F)c2)cn1 [Example 869, 5-{3-Fluoro-2′-[1-(2-methoxyethyl)-1H-pyrazol-4-yl]biphenyl-4-yl}pyrazin-2-amine]	141	844
Nc1cnc(-c2ccc(-c3ccccc3-c3cn[nH]c3)cc2F)cn1 [Example 870, 5-[3-Fluoro-2′-(1H-pyrazol-4-yl)biphenyl-4-yl]pyrazin-2-amine]	14.3	86.7

Structure (SMILES)	Ki (human FLAP) [nM]	IC50 [1] [nM]
N#CCn1cc(-c2ccccc2-c2ccc(-c3cnc(N)cn3)c(F)c2)cn1 [Example 871, {4-[4′-(5-Aminopyrazin-2-yl)-3′-fluorobiphenyl-2-yl]-1H-pyrazol-1-yl}acetonitrile]	25	371
CNc1ncc(-c2ccccc2-c2ccc(-c3cnc(N)cn3)c(F)c2)cn1 [Example 872, 5-[4′-(5-Aminopyrazin-2-yl)-3′-fluorobiphenyl-2-yl]-N-methylpyrimidin-2-amine]	8.3	53
Nc1cnc(-c2ccc(-c3ccccc3-c3cnsc3)cc2F)cn1 [Example 873, 5-(3-Fluoro-2′-isothiazol-4-ylbiphenyl-4-yl)pyrazin-2-amine]	23.1	336
Nc1cnc(-c2ccc(-c3ccccc3-c3cnn(CCO)c3)cc2F)cn1 [Example 874]	51.1	359
N#CCn1cc(-c2ccccc2-c2ccc(-c3cnc(N)nc3)c(F)c2)cn1 [Example 875, {4-[4′-(2-Aminopyrimidin.-5-yl)-3′-fluorobiphenyl-2-yl]-1H-pyrazol-yl}acetonitrile]	170	851
Nc1ncc(-c2ccc(-c3ccccc3-c3cn[nH]c3)cc2F)cn1 [Example 876, 5-[3-Fluoro-2′-(1H-pyrazo-4-yl)biphenyl-4-yl]pyrimidin-2-amine]	80.3	1080
C[C@H](NS(=O)(=O)c1ccccc1-c1cnc(-c2cnc(N)nc2)c(F)c1)C(F)(F)F [Example 877, 2-[6-(2-Aminopyrimidin-5-yl)-5-fluoropyridin-3-yl]-N-[(1S)-2,2,2-trifluoro-1-methylethyl]penzenesulfonamide as the hydrochloride salt]	4.7	10.5
Nc1ncc(-c2ncc(-c3ccccc3S(=O)(=O)C3CC3)cc2F)cn1 [Example 878, 5-{5-[2-(Cyclopropylsulfonyl)phenyl]-3-fluoropyridin-2-yl}pyrimidin-2-amine]	276	320
C[C@H](O)CNS(=O)(=O)c1ccccc1-c1cnc(-c2cnc(N)nc2)c(F)c1 [Example 879, 2-[6-(2-Aminopyrimidin-5-yl)-5-fluoropyridin-3-yl]-N-[(2S)-2-hydroxypropyl]benzenesulfonamide]	168	106
C[C@@H](CO)NS(=O)(=O)c1ccccc1-c1cnc(-c2cnc(N)nc2)c(F)c1 [Example 880, 2-[6-(2-Aminopyrimidin-5-yl)-5-fluoropyridin-3-yl]-N-[(1S)-2-hydroxy-1-methylethyl]benzenesulfonamide]	86.7	180
C[C@H](CO)NS(=O)(=O)c1ccccc1-c1cnc(-c2cnc(N)nc2)c(F)c1 [Example 881, 2-[6-(2-Aminopyrimidin-5-yl)-5-fluoropyridin-a-yl]-N-[(1R)-2-hydroxy-1-methylethyl]benzenesulfonamide]	76	128
Nc1ncc(-c2ncc(-c3ccccc3S(=O)(=O)NCCO)cc2F)cn1 [Example 882, 2-[6-(2-Aminopyrimidin-5-yl)-5-fluoropyridin-3-yl]-N-(2-hydroxyethyl)benzenesulfonamide]	167	68.8
C[C@@H](NS(=O)(=O)c1ccccc1-c1cnc(-c2cnc(N)nc2)c(F)c1)C(F)(F)F [Example 883, 2-[6-(2-Aminopyrimidin-5-yl)-5-fluoropyridin-3yl]-N-[(1R)-2,2,2-trifluoro-1-methylethyl]benzenesulfonamide]	34.2	69.5
Nc1cnc(-c2ccc(-c3ccccc3OCC3CCS(=O)(=O)CC3)cc2F)cn1 [Example 884, 5-{2′-[(1,1-Dioxidotetrahydro-2H-thiopyran-4-yl)methoxy]-3-fluorobiphenyl-4-yl}pyrazin-2-amine]	239	706
Nc1cnc(-c2ccc(-c3ccccc3OC3CCS(=O)(=O)CC3)cc2F)cn1 [Example 885, 5-{2′-[(1,1-Dioxidotetrahydro-2H-thiopyran-4-yl)oxy]-3-fluorobiphenyl-4-yl}pyrazin-2-amine]	40.8	1060
Nc1cnc(-c2ccc(-c3ccccc3OCc3ccc(C(=O)O)cc3)cc2F)cn1 [Example 886, 4-(([4′-(5-Aminopyrazin-2-yl)-3′-fluorobiphenyl-2-yl]oxy}methyl)benzoic acid]	5.8	> 1000
Nc1ncc(-c2ccc(-c3ccccc3OCc3ccc(C(=O)O)cc3)cc2F)cn1 [Example 887, 4-({[4′-(2-Aminopyrimidin-5-yl)-3′-fluorobiphenyl-2-yl]oxy}methyl)benzoic acid]	30.4	> 1000

Reference: patent US9745328B2, “Flap modulators” (JANSSEN PHARMACEUTICA NV, priority 2013, dated 2017)
